Measurements as given in patent US9296745B2, “Diacylglycerol acyltransferase 2 inhibitors” (Pfizer Inc., priority 2012, dated 2016).
Where a name gives a salt, the structure may show the parent alone.

The molecules below were run against Human DGAT2 (hDGAT2) (Homo sapiens (Human), UniProt Q96PD7) (assay: In vitro DGAT2 assay, IC50 determination with hDGAT2 membrane fraction). Details: geometric mean; background for complete inhibition of DGAT2 obtained with 50 μM (1R,2R)-2-({3′-Fluoro-4′-[(6-fluoro-1,3-benzothiazol-2-yl)amino]-1,1′-biphenyl-4-yl}carbonyl)cyclopentanecarboxylic acid; hydrochloride; read-out: DGAT2 IC50.
Human DGAT2 (hDGAT2), sequence (Q96PD7 whole entry): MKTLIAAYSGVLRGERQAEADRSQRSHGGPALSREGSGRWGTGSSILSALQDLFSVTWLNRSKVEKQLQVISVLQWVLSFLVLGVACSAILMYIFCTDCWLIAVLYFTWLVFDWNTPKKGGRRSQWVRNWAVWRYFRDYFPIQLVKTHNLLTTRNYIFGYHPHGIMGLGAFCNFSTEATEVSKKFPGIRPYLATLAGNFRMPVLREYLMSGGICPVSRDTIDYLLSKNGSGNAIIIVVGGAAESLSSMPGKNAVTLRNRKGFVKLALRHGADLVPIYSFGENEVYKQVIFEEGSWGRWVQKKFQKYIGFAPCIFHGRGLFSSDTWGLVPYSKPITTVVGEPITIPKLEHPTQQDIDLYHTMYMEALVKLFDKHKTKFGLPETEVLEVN
Type: biochemical
Outline: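 CHAPS-solubilized membrane fraction of FLAG-tagged hDGAT2 from baculovirus-infected SF9 cells (0.01 mg/mL) in 100 mM Hepes-NaOH pH 7.4, 20 mM MgCl2, 200 nM methyl arachidonyl fluorophosphonate; compounds pre-incubated 20 min with 0.04% BSA. Reaction 40 min at room temperature, stopped with H3PO4. [^14C]tridecanoylglycerol in organic phase counted; 11-point geometric mean IC50.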

Row | IC50 [nM] | Compound
1 | 38.5 | C[C@@H](c1nc2ccc(N3CCC[C@@H](C(=O)N4CCCC4)C3)nc2[nH]1)n1cc(Cl)cn1 [Example 196-B, ((R)-1-(2-((S)-1-(4-Chloro-1H-pyrazol-1-yl)ethyl)-3H-imidazo[4,5-b]pyridin-5-yl)piperidin-3-yl)(pyrrolidin-1-yl)methanone hydrochloride]

Same assay, conditions: geometric mean; background for complete inhibition of DGAT2 obtained with 50 μM (1R,2R)-2-({3′-Fluoro-4′-[(6-fluoro-1,3-benzothiazol-2-yl)amino]-1,1′-biphenyl-4-yl}carbonyl)cyclopentanecarboxylic acid; read-out: DGAT2 IC50

Row | IC50 [nM] | Compound
2 | 1250 | CN(C)C(=O)c1cccc(-c2nc3ccc(N4CCC[C@@H](C(=O)N5CCCC5)C4)nc3[nH]2)n1 [Example 173, (R)—N,N-Dimethyl-6-(5-(3-(pyrrolidine-1-carbonyl)piperidin-1-yl)-3H-imidazo[4,5-b]pyridin-2-yl)picolinamide]
3 | 1170 | O=C([C@@H]1CCCN(c2ccc3nc(-c4ccnc(C5CC5)n4)[nH]c3n2)C1)N1C[C@H]2C[C@@H]1CO2 [Example 174, (1R,4R)-2-Oxa-5-azabicyclo[2.2.1]heptan-5-yl((R)-1-(2-(2-cyclopropylpyrimidin-4-yl)-3H-imidazo[4,5-b]pyridin-5-yl)piperidin-3-yl)methanone]
4 | 73.4 | O=C([C@@H]1CCCN(c2ccc3nc(-c4ccnc(C5CC5)n4)[nH]c3n2)C1)N1CC(F)(F)C1 [Example 176, (R)-(1-(2-(2-Cyclopropylpyrimidin-4-yl)-3H-imidazo[4,5-b]pyridin-5-yl)piperidin-3-yl)(3,3-difluoroazetidin-1-yl)methanone]
5 | 953 | C[C@H]1CO[C@@H](c2ccccn2)CN1c1ccc2nc(-c3cccc(Cl)c3)[nH]c2n1 [Example 177, (2R,5S)-4-(2-(3-Chlorophenyl)-3H-imidazo[4,5-b]pyridin-5-yl)-5-methyl-2-(pyridin-2-yl)morpholine]
6 | 512 | CS(=O)(=O)c1cncc(-c2nc3ccc(N4CCC[C@@H](C(=O)N5CCCC5)C4)nc3[nH]2)c1 [Example 179, (R)-(1-(2-(5-(Methylsulfonyl)pyridin-3-yl)-3H-imidazo[4,5-b]pyridin-5-yl)piperidin-3-yl)(pyrrolidin-1-yl)methanone]
7 | 434 | C[C@@H]1CCN(c2ccc3nc(-c4cccc(OC(F)F)c4)[nH]c3n2)C[C@@H]1C(=O)N(C)C [Example 180, (3R,4R)-1-(2-(3-(Difluoromethoxy)phenyl)-3H-imidazo[4,5-b]pyridin-5-yl)-N,N,4-trimethylpiperidine-3-carboxamide]
8 | 6.03 | O=C([C@@H]1CCCN(c2ccc3nc(-c4cccc(C5CC5)n4)[nH]c3n2)C1)N1CCCC1 [Example 182, (R)-(1-(2-(6-Cyclopropylpyridin-2-yl)-3H-imidazo[4,5-b]pyridin-5-yl)piperidin-3-yl)(pyrrolidin-1-yl)methanone]
9 | 37.5 | O=C([C@@H]1CCCN(c2ccc3nc(-c4cncc(C5CC5)c4)[nH]c3n2)C1)N1CCCC1 [Example 183, (R)-(1-(2-(5-Cyclopropylpyridin-3-yl)-3H-imidazo[4,5-b]pyridin-5-yl)piperidin-3-yl)(pyrrolidin-1-yl)methanone]
10 | 15.2 | O=C([C@@H]1CCCN(c2ccc3nc(-c4cccc(C5CC5)n4)[nH]c3n2)C1)N1CCC(F)(F)C1 [Example 184, (R)-(1-(2-(6-Cyclopropylpyridin-2-yl)-3H-imidazo[4,5-b]pyridin-5-yl)piperidin-3-yl)(3,3-difluoropyrrolidin-1-yl)methanone]
11 | 231 | CCN(C)C(=O)[C@@H]1CCCN(c2ccc3nc(-c4ccnc(C5CC5)n4)[nH]c3n2)C1 [Example 185, (R)-1-(2-(2-Cyclopropylpyrimidin-4-yl)-3H-imidazo[4,5-b]pyridin-5-yl)-N-ethyl-N-methylpiperidine-3-carboxamide]
12 | 162 | O=C([C@H]1CN(c2ccc3nc(-c4cccc(C5CC5)n4)[nH]c3n2)CCO1)N1CCOCC1 [Example 186, (R)-(4-(2-(6-Cyclopropylpyridin-2-yl)-3H-imidazo[4,5-b]pyridin-5-yl)morpholin-2-yl)(morpholino)methanone]
13 | 10.5 | O=C([C@@H]1CCCN(c2ncc3nc(-c4cccc(C(F)(F)F)n4)[nH]c3n2)C1)N1CCCC1 [Example 187, (R)-Pyrrolidin-1-yl(1-(8-(6-(trifluoromethyl)pyridin-2-yl)-9H-purin-2-yl)piperidin-3-yl)methanone]
14 | 31.4 | CC(C)(c1nc2ccc(N3CCC[C@@H](C(=O)N4CCCC4)C3)nc2[nH]1)n1cc(Cl)cn1 [Example 188]
15 | 34.1 | CSc1cnn(C2(c3nc4ccc(N5CCC[C@@H](C(=O)N6CCCC6)C5)nc4[nH]3)CC2)c1 [Example 189, (R)-(1-(2-(1-(4-(Methylthio)-1H-pyrazol-1-yl)cyclopropyl)-3H-imidazo[4,5-b]pyridin-5-yl)piperidin-3-yl)(pyrrolidin-1-yl)methanone]
16 | 101 | COc1cnn(C2(c3nc4ccc(N5CCC[C@@H](C(=O)N6CCCC6)C5)nc4[nH]3)CC2)c1 [Example 194, (R)-(1-(2-(1-(4-Methoxy-1H-pyrazol-1-yl)cyclopropyl)-3H-imidazo[4,5-b]pyridin-5-yl)piperidin-3-yl)(pyrrolidin-1-yl)methanone]
17 | 142 | O=C([C@@H]1CCCN(c2ccc3nc(C4(c5coc(C6CC6)n5)CC4)[nH]c3n2)C1)N1CCCC1 [Example 195, (R)-(1-(2-(1-(2-cyclopropyloxazol-4-yl)cyclopropyl)-3H-imidazo[4,5-b]pyridin-5-yl)piperidin-3-yl)(pyrrolidin-1-yl)methanone]
18 | 74.2 | O=C([C@@H]1CCCN(c2ccc3nc(C4(n5cc(Cl)cn5)CC4)[nH]c3n2)C1)N1CC(F)(F)C1 [Example 200, (R)-(1-(2-(1-(4-Chloro-1H-pyrazol-1-yl)cyclopropyl)-3H-imidazo[4,5-b]pyridin-5-yl)piperidin-3-yl)(3,3-difluoroazetidin-1-yl)methanone]
19 | 91 | C[C@@H]1CCCN1C(=O)[C@@H]1CCCN(c2ccc3nc(C4(n5cc(Cl)cn5)CC4)[nH]c3n2)C1 [Example 201, ((R)-1-(2-(1-(4-Chloro-1H-pyrazol-1-yl)cyclopropyl)-3H-imidazo[4,5-b]pyridin-5-yl)piperidin-3-yl)((R)-2-methylpyrrolidin-1-yl)methanone]
20 | 321 | C[C@H]1CCCN1C(=O)[C@@H]1CCCN(c2ccc3nc(C4(n5cc(Cl)cn5)CC4)[nH]c3n2)C1 [Example 202, ((R)-1-(2-(1-(4-Chloro-1H-pyrazol-1-yl)cyclopropyl)-3H-imidazo[4,5-b]pyridin-5-yl)piperidin-3-yl)((S)-2-methylpyrrolidin-1-yl)methanone]
21 | 176 | O=C([C@@H]1CCCN(c2ccc3nc(C4(c5cnccn5)CC4)[nH]c3n2)C1)N1CCCC1 [Example 203, (R)-(1-(2-(1-(Pyrazin-2-yl)cyclopropyl)-3H-imidazo[4,5-b]pyridin-5-yl)piperidin-3-yl)(pyrrolidin-1-yl)methanone]
22 | 656 | O=C([C@@H]1CCCN(c2ccc3nc(C4(c5ncccn5)CC4)[nH]c3n2)C1)N1CCCC1 [Example 204, (R)-(1-(2-(1-(Pyrimidin-2-yl)cyclopropyl)-3H-imidazo[4,5-b]pyridin-5-yl)piperidin-3-yl)(pyrrolidin-1-yl)methanone]
23 | 188 | O=C([C@@H]1CCCN(c2ccc3nc(C4(n5cc(Cl)cn5)CC4)[nH]c3n2)C1)N1CCC1 [Example 205, (R)-Azetidin-1-yl(1-(2-(1-(4-chloro-1H-pyrazol-1-yl)cyclopropyl)-3H-imidazo[4,5-b]pyridin-5-yl)piperidin-3-yl)methanone]
24 | 246 | O=C([C@@H]1CCCN(c2ccc3nc(C4(n5cc(Cl)cn5)CC4)[nH]c3n2)C1)N1CCOCC1 [Example 206, (R)-(1-(2-(1-(4-Chloro-1H-pyrazol-1-yl)cyclopropyl)-3H-imidazo[4,5-b]pyridin-5-yl)piperidin-3-yl)(morpholino)methanone]
25 | 702 | C[C@@H]1CCN(c2ncc3nc(C4(n5cccn5)CC4)[nH]c3n2)C[C@@H]1C(=O)N1CCCC1 [Example 207, ((3R,4R)-1-(8-(1-(1H-Pyrazol-1-yl)cyclopropyl)-9H-purin-2-yl)-4-methylpiperidin-3-yl)(pyrrolidin-1-yl)methanone]
26 | 342 | O=C([C@@H]1CCCN(c2ncc3nc(C4(n5cccn5)CC4)[nH]c3n2)C1)N1CCCC1 [Example 210, (R)-(1-(8-(1-(1H-Pyrazol-1-yl)cyclopropyl)-9H-purin-2-yl)piperidin-3-yl)(pyrrolidin-1-yl)methanone]
27 | 845 | O=C(Nc1ccc(C(F)(F)F)nc1)c1nc2ccc(N3CCC[C@@H](C(=O)N4CCCC4)C3)nc2[nH]1 [Example 211, (R)-5-(3-(Pyrrolidine-1-carbonyl)piperidin-1-yl)-N-(6-(trifluoromethyl)pyridin-3-yl)-3H-imidazo[4,5-b]pyridine-2-carboxamide]
28 | 18.9 | O=C([C@@H]1CCCN(c2ccc3nc(C4(n5cc(Cl)cn5)CC4)[nH]c3n2)C1)N1CC=CC1 [Example 212, (R)-(1-(2-(1-(4-Chloro-1H-pyrazol-1-yl)cyclopropyl)-3H-imidazo[4,5-b]pyridin-5-yl)piperidin-3-yl)(2,5-dihydro-1H-pyrrol-1-yl)methanone]

Same assay, conditions: read-out: DGAT2 IC50

Row | IC50 [nM] | Compound
29 | 17400 | C[C@H]1CCN(c2ccc3nc(-c4cccc(OC(F)F)c4)[nH]c3n2)C[C@H]1C(=O)N(C)C [Example 181, (3S,4S)-1-(2-(3-(difluoromethoxy)phenyl)-3H-imidazo[4,5-b]pyridin-5-yl)-N,N,4-trimethylpiperidine-3-carboxamide]
30 | 37400 | C[C@H]1CCN(c2ncc3nc(C4(n5cccn5)CC4)[nH]c3n2)C[C@H]1C(=O)N1CCCC1 [Example 208, ((3S,4S)-1-(8-(1-(1H-pyrazol-1-yl)cyclopropyl)-9H-purin-2-yl)-4-methylpiperidin-3-yl)(pyrrolidin-1-yl)methanone]
